Marks after values point to notes of the source that are not given here.
Key:
TDP43A315T embryos = experiment: mutant TDP-43-induced motor axonopathy in zebrafish embryos; format: in vivo; details: zebrafish embryos
Description: FIG. 14: Inhibiting EphA4 signaling rescues motor axonopathies induced by overexpression of mutant TDP-43 and knockdown of Smn. Y-axes show motor axon length of zebrafish embryos (30 hpf) expressing TDP^WT (black bar) or TDP^A315T (white bar) (Panels A, B) or with unaltered (black bar) or reduced expression levels of Smn (white bar) (Panels C, D). Smn knockdown was established by injection of 3 ng (Panel C) or 6 ng (Panel D) atg-smn morpholino. Ctr-smn morpholino was injected as control. RTK1 signaling was inhibited by injection of 3 ng atg-RTK1 morpholino (shaded bars) (Panels A, C) or by treatment with C1 (500 μM, shaded bars) (Panels B, D). Injection of ctr-RTK1 morpholino and application of a 1/250 dilution of DMSO were used as control. ANOVA and Bonferroni's multiple comparison tests were used for statistical analysis: TDP^A315T/atg-RTK1 (n=24) vs. TDP^A315T/ctr-RTK1 (n=34, p=7.86×10^−5, Panel A), TDP^A315T/C1 (n=21) vs. TDP^A315T/DMSO (n=21, p=0.045, Panel B), atg-smn/atg-RTK1 (n=35) vs. atg-smn/ctr-RTK1 (n=35, p=4.93×10^−8, Panel C), atg-smn/C1 (n=91) vs. atg-smn/DMSO (n=105, p=1.27×10^−6, Panel D). Error bars are s.e.m.
Mann-Whitney test was used to determine significance between TDPA315T/ctr-RTK1 (4.5 ng) vs. TDPA315T/atg-RTK1 (4.5 ng, * p=0.001) and between TDPA315T/control vs. TDPA315T/C1 (° p=0.029). Control=1/250 DMSO and C1=500 μM.
(§1) A morpholino database of translation-blocking morpholinos (atg-mo) was used to perform a morpholino-based knockdown screening in a zebrafish model for ALS.^13 The standard control morpholino (5′-[…]-′3) (SEQ ID NO:4), provided by Gene tools, was used as control. Three nanograms of morpholino were co-injected with […] of SOD1 mRNA and the effect of gene knockdown on the mutant SOD1-induced axonopathy analyzed. Each morpholino was tested in two separate experiments. Only morphologically normal embryos were included for further analysis. Overexpression of SOD1 or TDP-43, applied to validate the protective morpholino, was established by injection of 1.76 ng SOD1 mRNA or 1.43 ng TDP-43 mRNA, respectively. Antisense morpholinos to knockdown zebrafish RTK1, RTK2, Smn and their five base pair-mismatch control morpholinos were developed by Gene tools: atg-RTK1 (5′-[…]-′3) (SEQ ID NO:5), atg-RTK2 (5′-[…]-[…]-′3) (SEQ ID NO:6), splice-RTK2 (5′-[…]-[…]-′3) (SEQ ID NO:7) and atg-smn (5′-[…]-3′) (SEQ ID NO:8). Compound 1 (2,5-dimethylpyrrolyl benzoic acid, Matrix Scientific) dissolved in DMSO was added to the water of 6-hpf-old zebrafish embryos.

EphA4 = EphA4 (Homo sapiens, UniProt P54764); details: WO2004/028551; cited from earlier work
Sequence of EphA4 (P54764 20-986, species assumed): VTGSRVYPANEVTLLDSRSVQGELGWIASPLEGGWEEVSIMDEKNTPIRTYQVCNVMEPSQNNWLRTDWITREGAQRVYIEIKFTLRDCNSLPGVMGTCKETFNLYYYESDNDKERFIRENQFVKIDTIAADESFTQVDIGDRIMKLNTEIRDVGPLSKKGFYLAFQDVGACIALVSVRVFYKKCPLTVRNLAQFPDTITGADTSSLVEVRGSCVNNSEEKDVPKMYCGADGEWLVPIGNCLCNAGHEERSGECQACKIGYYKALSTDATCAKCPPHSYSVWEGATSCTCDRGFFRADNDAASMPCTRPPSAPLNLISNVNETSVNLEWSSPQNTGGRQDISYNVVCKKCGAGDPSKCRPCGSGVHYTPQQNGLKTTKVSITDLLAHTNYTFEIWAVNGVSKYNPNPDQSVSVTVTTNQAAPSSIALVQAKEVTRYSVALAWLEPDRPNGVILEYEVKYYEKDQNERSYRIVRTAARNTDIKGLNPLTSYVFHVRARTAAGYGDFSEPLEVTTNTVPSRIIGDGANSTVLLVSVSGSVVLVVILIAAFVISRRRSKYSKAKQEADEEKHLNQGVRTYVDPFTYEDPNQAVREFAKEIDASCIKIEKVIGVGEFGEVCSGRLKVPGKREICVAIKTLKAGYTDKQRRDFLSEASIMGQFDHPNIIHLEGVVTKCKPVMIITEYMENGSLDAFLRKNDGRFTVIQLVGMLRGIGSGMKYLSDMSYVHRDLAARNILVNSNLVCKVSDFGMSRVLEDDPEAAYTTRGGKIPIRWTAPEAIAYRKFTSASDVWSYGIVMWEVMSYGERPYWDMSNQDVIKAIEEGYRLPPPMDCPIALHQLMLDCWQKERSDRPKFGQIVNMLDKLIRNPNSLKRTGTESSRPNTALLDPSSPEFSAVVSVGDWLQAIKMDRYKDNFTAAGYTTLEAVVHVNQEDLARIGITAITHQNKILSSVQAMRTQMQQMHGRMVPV

[1] = tested on: mutant SOD1-overexpressing fish; experiment: mutant SOD1-induced motor axonopathy in zebrafish embryos (percentage affected embryos, motor axon length); format: in vivo; details: for % affected embryos: Table 3, SOD1A4V embryos
Description: FIG. 1: EphA4 knockdown rescues mutant SOD1-induced motor axonopathy. […] Abnormal branching is indicated with arrowhead. Y-axes show motor axon length of zebrafish embryos expressing wild-type SOD1 (black bar, Panels D-G) or mutant SOD1 (white bar, Panels D-G). Knockdown of RTK2 in SOD1A4V- (Panel D), SOD1G93A- (Panel E) and SOD1G37R- (Panel F) expressing fish was established by co-injection of increasing amounts of atg-RTK2 morpholino (shaded bars). RTK1 expression was inhibited in SOD1A4V-expressing fish by co-injection of atg-RTK1 morpholino (shaded bars, Panel G). Ctr-RTK2 and ctr-RTK1 were used as control. ANOVA and Bonferroni's multiple comparison tests were used for statistical analysis. Comparing axonal length in SOD1A4V fish injected with ctr-RTK2 (n=39) vs. different doses atg-RTK2: 3 ng (n=43, p=0.0059), 4.5 ng (n=37, p=0.0016, Panel D), SOD1G93A: ctr-RTK2 (n=60) vs. atg-RTK2: 1.5 ng (n=55, p=0.015), 3 ng (n=51, p=2.82×10-9), 4.5 ng (n=46, p=2.22×10-15, Panel E), SOD1G37R: ctr-RTK2 (n=37) vs. atg-RTK2: 3 ng (n=25, p=0.027), 4.5 ng (n=36, p=0.0018, Panel F) and SOD1A4V: ctr-RTK1 (n=49) vs. atg-RTK1: 1.5 ng (n=51, p=2.51×10-7), 3 ng (n=64, p=7.99×10-10), 4.5 ng (n=54, p<1×10-20, Panel G). Western blot of SOD1WT or SOD1A4V (1.76 ng) expressing zebrafish embryos (30 hpf), co-injected with either ctr-RTK1 or atg-RTK1 (4.5 ng). Sixty embryos were used per group with actin as the loading control (H). Immunostaining of rtk1 (green) in rhombomeres 3 and 5 and of ephrin-b2 (magenta) in rhombomere 4 in zebrafish embryos injected with either ctr-RTK1 or atg-RTK1 (4.5 ng). RTK1-depleted embryos show disorganized rhombomere boundaries (arrowhead, I, Scale bar 50 μm). Error bars are s.e.m.
FIG. 2: RTK2 knockdown protects motor axons against SOD1^A4V-induced injury. Effect of RTK2 knockdown, established by injection of splice-rtk2 morpholino, on the motor axon length of SOD1^A4V-expressing zebrafish embryos (30 hpf). SOD1^WT-expressing fish and a non-functional five-base pair-mismatch control morpholino (ctr-RTK2) were used as control (Panel A). ANOVA and Bonferroni's multiple comparison tests were used for statistical analysis: SOD1^A4V/ctr-RTK2 (n=56) vs. SOD1^A4V/spl-RTK2 (n=60, 1.79×10^−4). Spl-RTK2 was designed against the exon 2 splice site of the zebrafish RTK2 pre-mRNA and alternatively skipped out exon 2. RT-PCR on non-transgenic fish (lane 1), ctr-RTK2-injected fish (lane 2) and spl-RTK2-injected fish (lane 3) at 30 hpf. Functional RTK2 mRNA, containing exon 2, is indicated by the 818-bp product (upper band) while non-functional RTK2 mRNA, lacking exon 2 is indicated by the 156-bp product (lower band), 60 embryos each group (Panel B). Error bars are s.e.m.
(§2) FIG. 12: Pharmacological inhibition of EphA4 receptor signaling protects against mutant SOD1 pathology in vivo. Effect of treatment with Compound 1 (C1, 500 μM) on the motor axon length of zebrafish embryos (30 hpf). DMSO (1/250 dilution) was used as control (Panel A). ANOVA and Bonferroni's multiple comparison tests were used for statistical analysis: SOD1^A4V/C1 (n=68) vs. SOD1^A4V/DMSO (n=76, p=3.54×10^−5). Effect of KYL-peptide (3 mM) treatment of 60-day-old SOD1^G93A rats on disease onset (Panel B) and survival (Panel C). Artificial CSF (ACSF) was used as control. Average disease onset: 133 days (treated, n=21) versus 125 days (control, n=17, T-test p=0.044). Average survival: 148 days (treated, n=21) versus 139 days (controls, n=17, T-test p=0.041). Error bars are s.e.m.
Effect of RTK2 knockdown (established by injection of atg-RTK2 morpholino) on the percentage of affected wild-type SOD1 or mutant SOD1 (A4V, G93A, G37R) zebrafish embryos (30 hpf). Ctr-RTK2 morpholino was used as control. An embryo was considered as affected when it had more than 10% abnormally branched motor axons. Significance of mtSOD1/ctr-RTK2 (4.5 ng) vs. mtSOD1/atg-RTK2 (4.5 ng) was determined by Mann-Whitney test, * p=0.0075, ° p=0.039 and # p=0.0052. […]

zebrafish embryos = experiment: morpholino-based smn knockdown: abnormally branched and truncated motor axons in zebrafish embryos; format: in vivo; details: for truncation affected (%): affected = more than 5% truncated motor axons; for branching affected (%): affected = more than 10% abnormally branched motor axons
Description: FIG. 15: Smn knockdown reduces the motor axon length in zebrafish embryos. […] The non-functional five-base pair-mismatch control morpholino (ctr-smn) was used as control. ANOVA and Bonferroni's multiple comparison tests were used for statistical analysis: ctr-smn (6 ng, n=42) vs. 3 ng atg-smn (n=28, p=8.99×10^−3), 4.5 ng atg-smn (n=30, 3.37×10^−7), 6 ng atg-smn (n=41, p<1×10-20). Error bars are s.e.m.
Effect of smn knockdown, induced by injection of increasing amounts of atg-smn morpholino, on the percentage affected embryos. An embryo was considered as affected when it had more than 10% abnormally branched or more than 5% truncated motor axons. Significance of ctr-smn (6 ng) vs. atg-smn (6 ng) was determined by Mann-Whitney test, *p=3×10-4, ° p=1.3×10-4.
as §1

SOD1G93A rat = experiment: KYL peptide intracerebroventricular treatment of SOD1G93A rats (disease onset, survival); format: in vivo
Description: as §2
EphA4−/− mice were mated with SOD1G93A mice for at least six generations. All experiments were littermate and gender controlled. […] The EphA4 blocking peptide ([…] (SEQ ID NO:1)-95% purity; Eurogentec) was a 3 mM solution in artificial cerebrospinal fluid and infused into the left lateral ventricle of 60-day-old female rats, using mini-osmotic pumps (28 days, 0.25 μl/h, Model 2004, Alzet) as previously described.^46 Disease onset, progression and survival of SOD1G93A rats were analyzed by weight and rotarod performance (five times for three minutes at 15 rpm) three times a week. […]

2,5-dimethylpyrrolyl benzoic acid [Compound C1]
effect on outgrowth deficit and aberrant branching induced by mutant TDP-43 (TDP43A315T embryos): rescued the outgrowth deficit and aberrant branching induced by mutant TDP-43

VTMEAINLAFPG (EphA4 inhibitory peptide) [VTM peptide]
binding to EphA4 (EphA4): preferentially bind to EphA4

5′-CCTCCCACTGA-AAATGGACAGAGGA-′3 (antisense CCTCCCACTGAAAATGGACAGAGGA; all phosphorodiamidate morpholino (PMO)) [spl-RTK2]
effect on mutant SOD1-induced axonopathy ([1]; SOD1A4V zebrafish embryos, 30 hpf): replicating the protective effect of RTK2 knockdown
% affected embryos ([1]; morpholino 0.4 ng): 40 (30) %
% affected embryos ([1]; morpholino 0.8 ng): 19 (31) %
% affected embryos ([1]; morpholino 1.5 ng): 13* (31) %

5′-CGACATCTTCTGCACCATTGGC-3′ (all phosphorodiamidate morpholino (PMO)) [atg-smn]
truncation affected (%) (zebrafish embryos; morpholino 3 ng): 7%
branching affected (%) (zebrafish embryos; morpholino 3 ng): 39%
truncation affected (%) (zebrafish embryos; morpholino 4.5 ng): 11%
branching affected (%) (zebrafish embryos; morpholino 4.5 ng): 46%
truncation affected (%) (zebrafish embryos; morpholino 6 ng): 42° %
branching affected (%) (zebrafish embryos; morpholino 6 ng): 71* %

KYLPYWPVLSSL (EphA4 inhibitory peptide) [KYL peptide]
Average survival (SOD1G93A rat; KYL-peptide 3 mM intracerebroventricular from day 60, controls 139 days): 148 days
Average disease onset (SOD1G93A rat; KYL-peptide 3 mM intracerebroventricular from day 60, onset by rotarod, control 125 days): 133 days
binding to EphA4 (EphA4): preferentially bind to EphA4
